Assay: In vitro release study of EVE-PLGA microsphere (sample-and-separate method)
Assay type: physicochemical
Conditions: during in vitro release study, release medium pH 7.4, 37° C.
Experimental: The in vitro release study was carried out by a sample-and-separate method. Briefly, 20 mg of microsphere sample (n=3) was taken in a 100 mL flask and dispersed in 50 mL of release medium (0.5% Tween 20 and 0.1% sodium azide in phosphate buffered saline (PBS) at pH 7.4). The flasks were placed in an orbital agitating incubator at 37° C. and shaken at 100 rpm. At certain time points (E10PA53 at 1, 3, 7, 14, 21, 28, 35, 42, 49, 56 days and E10PE77 at 1, 3, 7, 14, 21, 28, 35, 42, 49, 56, 63, 70, 77, 84, 91 days), all medium was collected and filtered on filter paper. The filtered pellet was freeze-dried for 24 h and dissolved in acetonitrile. The content of the unreleased EVE was then analyzed by HPLC as described above. Since EVE was known to be degradable in aqueous solution as a free form in a time-dependent manner, the EVE content was analyzed in the microsphere residue.
The microspheres were also prepared using a membrane with a pore size of 50 μm, which produced microspheres having a diameter size larger than 75 μm. To analyze the release behavior of EVE from the microspheres, an in vitro release study was performed by a sample-and-separate method at physiological conditions. […] The content of EVE was determined in the remaining microsphere after collecting whole samples at certain time points to avoid degradation-related loss of EVE in an aqueous environment.

- stability of EVE in the microsphere: no change in the stability
Structure (SMILES): CO[C@H]1C[C@@H]2CC[C@@H](C)[C@@](O)(O2)C(=O)C(=O)N2CCCC[C@H]2C(=O)O[C@H]([C@H](C)C[C@@H]2CC[C@@H](OCCO)[C@H](OC)C2)CC(=O)[C@H](C)/C=C(\C)[C@@H](O)[C@@H](OC)C(=O)[C@H](C)C[C@H](C)/C=C/C=C/C=C/1C [EVE, everolimus]

From US12396951B2, “Prevention of local tumor recurrence following surgery using sustainedand/or delayed release of medicaments contained in micro-particles” (UPEXMED CO. LTD., priority 2016, dated 2025)
